Reference: ChEMBL document CHEMBL1151687, “Search for alpha-helical propensity in the receptor-bound conformation of glucagon-like peptide-1” (Bioorg Med Chem, 2008)
Positions of bridges follow the written chain, without caps; N, C: chain ends. Residues, ends and D or L forms follow the SMILES beside them.

Tests used:
[1] = target: T1, Glucagon-like peptide 1 receptor (Homo sapiens, UniProt P43220); test: Activation of human GLP1R expressed in HEK293 cells assessed as effect on cAMP responsive element promoter driven luciferase expression; format: functional, cell-based
[2] = target: T1, Glucagon-like peptide 1 receptor; test: Displacement of [125I]exendin(9-39) from human GLP1R expressed in HEK293 cells; format: cell-based

T1 sequence (P43220 whole entry): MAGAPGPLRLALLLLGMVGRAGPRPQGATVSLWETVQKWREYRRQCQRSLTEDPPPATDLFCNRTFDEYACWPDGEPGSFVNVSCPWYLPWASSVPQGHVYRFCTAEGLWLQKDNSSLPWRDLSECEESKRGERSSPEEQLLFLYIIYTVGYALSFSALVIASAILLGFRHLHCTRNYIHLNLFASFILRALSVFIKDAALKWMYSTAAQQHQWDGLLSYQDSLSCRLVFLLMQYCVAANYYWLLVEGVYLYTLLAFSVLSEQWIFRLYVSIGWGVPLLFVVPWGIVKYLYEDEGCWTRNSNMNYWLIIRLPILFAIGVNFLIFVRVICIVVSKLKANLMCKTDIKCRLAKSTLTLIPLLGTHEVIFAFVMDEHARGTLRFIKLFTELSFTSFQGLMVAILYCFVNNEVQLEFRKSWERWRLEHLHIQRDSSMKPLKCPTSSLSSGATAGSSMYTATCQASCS

EC50 [1] [nM]	IC50 [2] [nM]	SMILES
24	440	CC[C@H](C)[C@H](NC(=O)[C@H](CCC(=O)O)NC(=O)[C@H](CCCCN)NC(=O)[C@H](C)NC(=O)[C@H](C)NC(=O)[C@H](CCC(N)=O)NC(=O)CNC(=O)[C@H](CCC(=O)O)NC(=O)[C@H](CC(C)C)NC(=O)[C@H](Cc1ccc(O)cc1)NC(=O)[C@H](CO)NC(=O)[C@H](CO)NC(=O)[C@@H](NC(=O)[C@H](CCC(N)=O)NC(=O)[C@H](CO)NC(=O)[C@@H](NC(=O)[C@H](Cc1ccccc1)NC(=O)[C@H](CCCCNC(C)=O)NC(=O)CNC(=O)[C@H](CCC(=O)O)NC(=O)[C@H](C)NC(=O)[C@@H](N)Cc1cnc[nH]1)[C@@H](C)O)C(C)C)C(=O)N[C@@H](Cc1ccccc1)C(=O)N[C@@H](C)C(=O)N[C@@H](Cc1c[nH]c2ccccc12)C(=O)N[C@@H](CC(C)C)C(=O)N[C@H](C(=O)N[C@@H](CCCCN)C(=O)NCC(=O)N[C@@H](CCCN=C(N)N)C(N)=O)C(C)C (H-HAEGK(Ac)FTSQVSSYLEGQAAKEIFAWLVKGR-NH2)
0.0075	4.5	CC[C@H](C)[C@H](NC(=O)[C@H](Cc1ccccc1)NC(=O)[C@H](CCC(=O)O)NC(=O)[C@H](CCCCN)NC(=O)[C@H](C)NC(=O)[C@H](C)NC(=O)[C@H](CCC(N)=O)NC(=O)CNC(=O)[C@H](CCC(=O)O)NC(=O)[C@@H]1CCC(=O)NCCCC[C@H](NC(=O)[C@H](CC(=O)O)NC(=O)[C@H](CO)NC(=O)[C@@H](NC(=O)[C@H](Cc2ccccc2)NC(=O)[C@@H](NC(=O)CNC(=O)[C@H](CCC(=O)O)NC(=O)[C@H](C)NC(=O)[C@@H](N)Cc2cnc[nH]2)[C@@H](C)O)[C@@H](C)O)C(=O)N[C@@H](CO)C(=O)N[C@@H](CO)C(=O)N[C@@H](Cc2ccc(O)cc2)C(=O)N1)C(=O)N[C@@H](C)C(=O)N[C@@H](Cc1c[nH]c2ccccc12)C(=O)N[C@@H](CC(C)C)C(=O)N[C@H](C(=O)N[C@@H](CCCCN)C(=O)NCC(=O)N[C@@H](CCCNC(=N)N)C(N)=O)C(C)C (H-HAEGTFTSDKSSYEEGQAAKEFIAWLVKGR-NH2; lactam 10-14)
0.1	1200	CC[C@H](C)[C@H](NC(=O)[C@H](CCC(=O)O)NC(=O)[C@H](CCCCN)NC(=O)[C@H](C)NC(=O)[C@H](CCC(N)=O)NC(=O)[C@H](CCC(N)=O)NC(=O)CNC(=O)[C@H](CCC(=O)O)NC(=O)[C@H](CCCCNC(C)=O)NC(=O)[C@H](Cc1ccc(O)cc1)NC(=O)[C@H](CO)NC(=O)[C@H](CO)NC(=O)[C@@H](NC(=O)[C@H](CC(=O)O)NC(=O)[C@H](CO)NC(=O)[C@@H](NC(=O)[C@H](Cc1ccccc1)NC(=O)[C@@H](NC(=O)CNC(=O)[C@H](CCC(=O)O)NC(=O)[C@H](C)NC(=O)[C@@H](N)Cc1cnc[nH]1)[C@@H](C)O)[C@@H](C)O)C(C)C)C(=O)N[C@@H](Cc1ccccc1)C(=O)N[C@@H](C)C(=O)N[C@@H](Cc1c[nH]c2ccccc12)C(=O)N[C@@H](CC(C)C)C(=O)N[C@H](C(=O)N[C@@H](CCCCN)C(=O)NCC(=O)N[C@@H](CCCNC(=N)N)C(N)=O)C(C)C (H-HAEGTFTSDVSSYK(Ac)EGQQAKEIFAWLVKGR-NH2)
